Source: US6670355B2, “Method of treating cardiovascular disease” (Wyeth, priority 2000, dated 2003)
Values joined by “and” are separate entries in the source; they are usually repeats but may differ in a detail not shown here. Equal values may be shown once.

System: ApoE knockout (EKO) mice
Assay: standard pharmacological test procedure for atherosclerosis in ApoE knockout (EKO) mice: plasma lipids and aortic arch lesions
Assay type: in vivo
Settings: for Aortic Atherosclerosis (% lesion involvement as assessed by lpipd staining): aortic arch, Oil Red O; for Aortic Atherosclerosis (% lesion involvement as assessed by lpipd staining) / HDL-C / LDL-C / Total Cholesterol / Triglycerides / VLDL-C: Western Diet, mean ± S.E.; for HDL-C / LDL-C / Total Cholesterol / Triglycerides / VLDL-C: plasma
Source text: The ability of the rapamycins of this invention to treat or inhibit cardiovascular disease or peripheral vascular disease was confirmed in a standard pharmacological test procedure using ApoE knockout (EKO) mice, which are a well accepted animal model of human atherosclerosis. In this test procedure, rapamycin was used a representative example of a rapamycin of this invention. The procedure used, and results obtained are briefly summarized below.
Male EKO mice, 4-6 weeks of age, were housed in shoe-box cages and were allowed ad lib food and water. The animals were randomized by weight into 5 groups (N=12-15 mice per group) and were fed Purina Rodent Chow for the first week of the study. Also during this period as well as the remaining 12 weeks of the study, the animals were dosed every 2 days with 0, 1, 2, 4 or 8 mg/kg rapamycin s.c. using 2% Tween-80, 1% carboxymethyl cellulose as the vehicle and Control. The animal diet was switched to a casein-based Western Diet for week 2 to week 13 of the study. At the end of the study period, the animals were euthanized, plasma samples obtained, and the hearts perfused first with saline, then with 10% formalin. Total cholesterol and triglycerides were determined using enzymatic methods with commercially-available kits from Boehringer Mannheim and Wako Biochemicals, respectively, and the Boehringer Mannheim Hitachii 911 Analyzer (Boehringer Mannheim Diagnostic Laboratory Systems, Indianapolis, Ind.). Separation and quantification of plasma lipoproteins were performed using FPLC size fractionation. Briefly, […] of serum was filtered and injected into two Superose 6 columns (Amersham Pharmacia Biotech, UK, Ltd) connected in series and eluted at a constant flow rate with 1 mM sodium EDTA and 0.15 M NaCl. Areas of each curve representing VLDL, LDL and HDL were integrated using Millennium software (Waters Technologies Corporation), and each lipoprotein fraction was quantified by multiplying the Total Cholesterol value by the relative percent area of each respective peak. The aortas were carefully isolated and remained in the formalin fixative for 48-72 hours before handling. Atherosclerotic lesions were identified by Oil Red O staining, a well accepted procedure for identifying accumulation of neutral lipids such as cholesterols and triglycerides. The vessels were destained, and then imaged using a Nikon SMU800 microscope fitted with a Sony 3CCD video camera system in concert with IMAQ Configuration Utility (National Instrument) as the image capturing software. The lesions were quantified along the aortic arch using a custom threshold utility software package designed by Robert Coll (Coleman Technologies). Automated lesion assessment was performed on the vessels using the threshold function of the program, specifically on the region contained within the aortic arch from the proximal edge of the Right Common Carotid artery to the distal edge of the Left Subclavian artery. Aortic atherosclerosis data were expressed as percent lesion (lipid) involvement strictly within this defined luminal area. Statistical significance between the Control and treated groups was determined using the Dunnett's Test at 1% significance level (p<0.01).

CO[C@H]1C[C@@H]2CC[C@@H](C)[C@@](O)(O2)C(=O)C(=O)N2CCCC[C@H]2C(=O)O[C@H]([C@H](C)C[C@@H]2CC[C@@H](O)[C@H](OC)C2)CC(=O)[C@H](C)/C=C(\C)[C@@H](O)[C@@H](OC)C(=O)[C@H](C)C[C@H](C)/C=C/C=C/C=C/1C [rapamycin]
area of aorta containing fat (1, 2, 4, or 8-mg/kg qod for 12 weeks): 12-16% | Aortic Atherosclerosis (% lesion involvement as assessed by lpipd staining) (1 mg/kg s.c. every 2 days, 1 mg/kg): 21.6% and 21.6 ± 3.1 % | Aortic Atherosclerosis (% lesion involvement as assessed by lpipd staining) (2 mg/kg s.c. every 2 days, 2 mg/kg): 14.9 ± 3.1 % | Aortic Atherosclerosis (% lesion involvement as assessed by lpipd staining) (4 mg/kg s.c. every 2 days, 4 mg/kg): 16% and 16.4 ± 2.8 % | Aortic Atherosclerosis (% lesion involvement as assessed by lpipd staining) (8 mg/kg s.c. every 2 days, 8 mg/kg): 12% and 12.03 ± 2.3 % | effect on VLDL-cholesterol (compared with control EKO mice): not significantly affecting | effect on circulating plasma HDL-cholesterol (compared with control EKO mice): significantly (p<0.01) increased | effect on circulating plasma LDL-cholesterol (compared with control EKO mice): significantly (p<0.01) increased | effect on total cholesterol (compared with control EKO mice): not significantly affecting | effect on triglycerides (compared with control EKO mice): not significantly affecting | HDL-C (1 mg/kg s.c. every 2 days): 23 ± 6 mg/dL | LDL-C (1 mg/kg s.c. every 2 days): 508 ± 18 mg/dL | Total Cholesterol (1 mg/kg s.c. every 2 days): 1434 ± 35 mg/dL | Triglycerides (1 mg/kg s.c. every 2 days): 132 ± 16 mg/dL | VLDL-C (1 mg/kg s.c. every 2 days): 903 ± 34 mg/dL | HDL-C (2 mg/kg s.c. every 2 days): 31 ± 5 mg/dL | LDL-C (2 mg/kg s.c. every 2 days): 517 ± 18 mg/dL | Total Cholesterol (2 mg/kg s.c. every 2 days): 1311 ± 80 mg/dL | Triglycerides (2 mg/kg s.c. every 2 days): 143 ± 20 mg/dL | VLDL-C (2 mg/kg s.c. every 2 days): 763 ± 64 mg/dL | HDL-C (4 mg/kg s.c. every 2 days): 38 ± 5 mg/dL | LDL-C (4 mg/kg s.c. every 2 days): 494 ± 10 mg/dL | Total Cholesterol (4 mg/kg s.c. every 2 days): 1281 ± 58 mg/dL | Triglycerides (4 mg/kg s.c. every 2 days): 136 ± 12 mg/dL | VLDL-C (4 mg/kg s.c. every 2 days): 749 ± 58 mg/dL | HDL-C (8 mg/kg s.c. every 2 days): 49 ± 3 mg/dL | LDL-C (8 mg/kg s.c. every 2 days): 475 ± 21 mg/dL | Total Cholesterol (8 mg/kg s.c. every 2 days): 1167 ± 75 mg/dL | Triglycerides (8 mg/kg s.c. every 2 days): 134 ± 9 mg/dL | VLDL-C (8 mg/kg s.c. every 2 days): 644 ± 58 mg/dL | circulating total cholesterol (rapamycin treated animals, 1, 2, 4, or 8-mg/kg qod for 12 weeks): 1300 to 1500 mg/dL | reduction in aortic atherosclerosis (rapamycin treated vs Control EKO mice): three-fold reduction
